Laboratory results: patent publication US20050245456A1, “Combination therapy to prevent and treat diarrhea induced by cancer treatment” (Pfizer Inc, priority 2004, published 2005)
Blank lines part the entries; values can stand above or below the compound they belong to.

Legend:
[1] = Phase 1 trial: diarrhea induced by the isothiazole derivative; format: in vivo, human; conditions: almost all subjects at doses greater than 160 mg/day, within the first few days
Method: Susceptible subjects are encouraged to adhere to a daily schedule of prophylactic anti-diarrheal agents, such as Loperamide, Octreotide, Loperamide, Tamoxifen, a bulking agent, or an anti-estrogen. To treat the diarrhea in these patients, a therapeutically effective amount of 3-(4-Bromo-2,6-difluoro-benzyloxy)-5-[3-(4-pyrrolidin-1-yl-butyl)-ureido]-isothiazole-4-carboxylic acid amide HCl is administered to a patient in need of such therapy, prior to, simultaneously or sequentially with a therapeutically effective amount of Loperamide, Octreotide, Loperamide, Tamoxifen, a bulking agent, or an anti-estrogen.

[2] = cited from earlier work
[3] = patients who experienced this side-effect during a previous course of chemotherapy; Cascinu et al. 1994; cited from earlier work
[4] = test system: MCF-7 breast cancer cells; conditions: Otto et al. 1996; cited from earlier work

diarrhea developed by subjects (CTC grade) [1]: Grade 1 or 2 diarrhea
Structure (SMILES): NC(=O)c1c(OCc2c(F)cc(Br)cc2F)nsc1NC(=O)NCCCCN1CCCC1 [3-(4-Bromo-2,6-difluoro-benzyloxy)-5-[3-(4-pyrrolidin-1-yl-butyl)-ureido]-isothiazole-4-carboxylic acid amide]

Structure (SMILES): C[C@@H](O)[C@@H]1NC(=O)[C@H](CCCCN)NC(=O)[C@@H](Cc2c[nH]c3ccccc23)NC(=O)[C@H](Cc2ccccc2)NC(=O)[C@@H](NC(=O)[C@H](N)Cc2ccccc2)CSSC[C@@H](C(=O)N[C@H](CO)[C@@H](C)O)NC1=O [Octreotide]
treatment of diarrhea after chemotherapy with 5-fluorouracil ([2]; 11 patients with colorectal cancer, Kennedy et al. 1990): encouraging results
efficacy versus Loperamide in therapy of 5-fluorouracil-induced diarrhea ([2]; randomized trial, Cascinu et al. 1993): more effective than Loperamide
prevention of diarrhea associated with cisplatin [3]: active in preventing diarrhea

Structure (SMILES): CC/C(=C(\c1ccccc1)c1ccc(OCCN(C)C)cc1)c1ccccc1 [Tamoxifen]
effect on cell cycle progression [4]: blocks cell cycle progression in G0/G1
